Source: patent publication US20230293518A1 (Edgewise Therapeutics, Inc., priority 2020, published 2023)

These molecules were tested against skeletal myofibrils (myosin ATPase) (assay: Skeletal Myofibril ATPase Assay). Conditions: Table 4B.
Assay type: biochemical
In short: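 IC50 came from four-parameter logistic fits, bottom constrained ≥0, of (Max−Min) A340 values normalised to 1% DMSO controls. Readings were taken kinetically over 45 min at 1.5-2 min intervals, with ADP from myofibril myosin ATPase coupled through PK-LDH to NADH oxidation. Buffer was pCa (PIPES/CaCl2/EGTA), pH 7.0.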

Row | IC50 | Compound
1 | > 100 µM | O=C(Cn1nc(-c2ccc(OCC(F)(F)F)cc2)ccc1=O)NCc1ccncc1Cl [II-25, N-((3-chloropyridin-4-yl)methyl)-2-(6-oxo-3-(4-(2,2,2-trifluoroethoxy)phenyl)pyridazin-1(6H)-yl)acetamide]
2 | 10 to 100 µM | O=C(Cn1nc(-c2ccc(OCC(F)(F)F)cc2)ccc1=O)NCc1ccc[nH]c1=O [II-26, N-((2-oxo-1,2-dihydropyridin-3-yl)methyl)-2-(6-oxo-3-(4-(2,2,2-trifluoroethoxy)phenyl)pyridazin-1(6H)-yl)acetamide]

Same assay, conditions: Table 4C

Row | IC50 | Compound
3 | < 10 µM | CCOc1ccc(-c2ccc(=O)n(CC(=O)NCc3ccccc3Cl)n2)cc1 [IIIa-1, N-(2-chlorobenzyl)-2-(3-(4-ethoxyphenyl)-6-oxopyridazin-1(6H)-yl)acetamide]
4 | < 10 µM | CC(C)Oc1ccc(-c2ccc(=O)n(CC(=O)NCc3ccccc3Cl)n2)cc1 [IIIa-2, N-(2-chlorobenzyl)-2-(3-(4-isopropoxyphenyl)-6-oxopyridazin-1(6H)-yl)acetamide]
5 | < 10 µM | CCNC(=O)Cn1nc(-c2ccc(OC)cc2)ccc1=O [IIIa-3, N-ethyl-2-(3-(4-methoxyphenyl)-6-oxopyridazin-1(6H)-yl)acetamide]
6 | < 10 µM | COc1ccc(-c2ccc(=O)n(CC(=O)NCC3CCCCC3)n2)cc1 [IIIa-4, N-(cyclohexylmethyl)-2-(3-(4-methoxyphenyl)-6-oxopyridazin-1(6H)-yl)acetamide]
7 | < 10 µM | COc1ccc(-c2ccc(=O)n(CC(=O)NCCc3ccccc3)n2)cc1 [IIIa-5, 2-(3-(4-methoxyphenyl)-6-oxopyridazin-1(6H)-yl)-N-phenethylacetamide]
8 | < 10 µM | CCOc1ccc(-c2ccc(=O)n(CC(=O)NC(C)C)n2)cc1 [IIIa-6, 2-(3-(4-ethoxyphenyl)-6-oxopyridazin-1(6H)-yl)-N-isopropylacetamide]
9 | < 10 µM | COc1ccc(-c2ccc(=O)n(CC(=O)NCc3cc(F)ccc3Cl)n2)cc1 [IIIa-7, N-(2-chloro-5-fluorobenzyl)-2-(3-(4-methoxyphenyl)-6-oxopyridazin-1(6H)-yl)acetamide]
10 | < 10 µM | COc1ccc(-c2ccc(=O)n(CC(=O)NCc3cccc(Cl)c3)n2)cc1 [IIIa-8, N-(3-chlorobenzyl)-2-(3-(4-methoxyphenyl)-6-oxopyridazin-1(6H)-yl)acetamide]
11 | < 10 µM | COc1ccc(-c2ccc(=O)n(CC(=O)NC(C)(C)c3ccccc3)n2)cc1 [IIIa-9, 2-(3-(4-methoxyphenyl)-6-oxopyridazin-1(6H)-yl)-N-(2-phenylpropan-2-yl)acetamide]
12 | < 10 µM | COc1ccc(-c2ccc(=O)n(CC(=O)NCc3cccc(C)c3)n2)cc1 [IIIa-10, 2-(3-(4-methoxyphenyl)-6-oxopyridazin-1(6H)-yl)-N-(3-methylbenzyl) acetamide]
13 | < 10 µM | COc1ccc(-c2ccc(=O)n(CC(=O)NCc3ccccc3C(F)(F)F)n2)cc1 [IIIa-11, 2-(3-(4-methoxyphenyl)-6-oxopyridazin-1(6H)-yl)-N-(2-(trifluoromethyl)benzyl)acetamide]
14 | < 10 µM | COc1ccc(-c2ccc(=O)n(CC(=O)NCc3ccc(Cl)cc3Cl)n2)cc1 [IIIa-12, N-(2,4-dichlorobenzyl)-2-(3-(4-methoxyphenyl)-6-oxopyridazin-1(6H)-yl)acetamide]
15 | < 10 µM | COc1ccc(-c2ccc(=O)n(CC(=O)NCc3ccccc3Cl)n2)c(F)c1 [IIIa-13, N-(2-chlorobenzyl)-2-(3-(2-fluoro-4-methoxyphenyl)-6-oxopyridazin-1(6H)-yl)acetamide]
16 | < 10 µM | COc1ccc(-c2ccc(=O)n(CC(=O)NCc3ccc(C)cc3)n2)cc1 [IIIa-15, 2-(3-(4-methoxyphenyl)-6-oxopyridazin-1(6H)-yl)-N-(4-methylbenzyl) acetamide]
17 | < 10 µM | COc1ccc(-c2ccc(=O)n(CC(=O)NCc3ccccc3C)n2)cc1 [IIIa-16, 2-(3-(4-methoxyphenyl)-6-oxopyridazin-1(6H)-yl)-N-(2-methylbenzyl) acetamide]
18 | < 10 µM | COc1ccc(-c2ccc(=O)n(CC(=O)NCc3ccc(Cl)cc3)n2)cc1 [IIIa-17, N-(4-chlorobenzyl)-2-(3-(4-methoxyphenyl)-6-oxopyridazin-1(6H)-yl)acetamide]
19 | < 10 µM | CCc1ccc(-c2ccc(=O)n(CC(=O)NCc3ccccc3Cl)n2)cc1 [IIIa-18, N-(2-chlorobenzyl)-2-(3-(4-ethylphenyl)-6-oxopyridazin-1(6H)-yl)acetamide]
20 | < 10 µM | CCNC(=O)Cn1nc(-c2ccc(C3CC3)cc2)ccc1=O [IIIa-19, 2-(3-(4-cyclopropylphenyl)-6-oxopyridazin-1(6H)-yl)-N-ethylacetamide]
21 | 10 to 100 µM | COc1ccc(-c2ccc(=O)n(CC(=O)NC3(c4ccccc4Cl)CC3)n2)cc1 [IIIa-20, N-(1-(2-chlorophenyl)cyclopropyl)-2-(3-(4-methoxyphenyl)-6-oxopyridazin-1(6H)-yl)acetamide]
22 | 10 to 100 µM | CNC(=O)Cn1nc(-c2ccc(OC)cc2)ccc1=O [IIIa-21, 2-(3-(4-methoxyphenyl)-6-oxopyridazin-1(6H)-yl)-N-methylacetamide]
23 | 10 to 100 µM | COc1ccc(-c2ccc(=O)n(CC(=O)NCc3ccccc3Cl)n2)c(C)c1 [IIIa-22, N-(2-chlorobenzyl)-2-(3-(4-methoxy-2-methylphenyl)-6-oxopyridazin-1(6H)-yl)acetamide]

Row | IC50 | Compound
24 | 10 to 100 µM | COc1ccc(-c2ccc(=O)n(CC(=O)NCc3ccccc3Cl)n2)cc1C [IIIa-23, N-(2-chlorobenzyl)-2-(3-(4-methoxy-3-methylphenyl)-6-oxopyridazin-1(6H)-yl)acetamide]
25 | 10 to 100 µM | COc1ccc(-c2ccc(=O)n(CC(=O)NCc3ccccc3Cl)n2)cc1F [IIIa-24, N-(2-chlorobenzyl)-2-(3-(3-fluoro-4-methoxyphenyl)-6-oxopyridazin-1(6H)-yl)acetamide]
26 | 10 to 100 µM | COc1ccc(-c2ccc(=O)n(CC(=O)NC(C)c3ccccc3Cl)n2)cc1 (stereo not shown) [IIIa-25, N-(1-(2-chlorophenyl)ethyl)-2-(3-(4-methoxyphenyl)-6-oxopyridazin-1(6H)-yl)acetamide]
27 | 10 to 100 µM | COc1ccc(-c2ccc(=O)n(CC(=O)NCc3ccon3)n2)cc1 [IIIa-26, N-(isoxazol-3-ylmethyl)-2-(3-(4-methoxyphenyl)-6-oxopyridazin-1(6H)-yl)acetamide]
28 | 10 to 100 µM | CCNC(=O)Cn1nc(-c2ccc(OCC3(F)COC3)cc2)ccc1=O [IIIa-27, N-ethyl-2-(3-(4-((3-fluorooxetan-3-yl)methoxy)phenyl)-6-oxopyridazin-1(6H)-yl)acetamide]
29 | > 100 µM | COc1ccc(-c2ccc(=O)n(CC(=O)NCc3cnccn3)n2)cc1 [IIIa-28, 2-(3-(4-methoxyphenyl)-6-oxopyridazin-1(6H)-yl)-N-(pyrazin-2-ylmethyl) acetamide]
30 | > 100 µM | COc1ccc(-c2ccc(=O)n(CC(=O)NCC3CCOCC3)n2)cc1 [IIIa-29, 2-(3-(4-methoxyphenyl)-6-oxopyridazin-1(6H)-yl)-N-((tetrahydro-2H-pyran-4-yl)methyl) acetamide]
31 | > 100 µM | COc1ccc(-c2ccc(=O)n(CC(=O)NCc3ccccn3)n2)cc1 [IIIa-30, 2-(3-(4-methoxyphenyl)-6-oxopyridazin-1(6H)-yl)-N-(pyridin-2-ylmethyl)acetamide]
32 | > 100 µM | COc1ccc(-c2ccc(=O)n(CC(=O)NCc3cnoc3)n2)cc1 [IIIa-31, N-(isoxazol-4-ylmethyl)-2-(3-(4-methoxyphenyl)-6-oxopyridazin-1(6H)-yl)acetamide]
33 | > 100 µM | COc1ccc(-c2ccc(=O)n(CC(=O)NCc3cnn(C)c3)n2)cc1 [IIIa-32, 2-(3-(4-methoxyphenyl)-6-oxopyridazin-1(6H)-yl)-N-((1-methyl-1H-pyrazol-4-yl)methyl) acetamide]
34 | > 100 µM | COc1ccc(-c2ccc(=O)n(CC(=O)NCc3nccn3C)n2)cc1 [IIIa-33, 2-(3-(4-methoxyphenyl)-6-oxopyridazin-1(6H)-yl)-N-((1-methyl-1H-imidazol-2-yl)methyl) acetamide]
35 | > 100 µM | COc1ccc(-c2ccc(=O)n(CC(=O)NCc3ccno3)n2)cc1 [IIIa-34, N-(isoxazol-5-ylmethyl)-2-(3-(4-methoxyphenyl)-6-oxopyridazin-1(6H)-yl)acetamide]
36 | < 10 µM | COc1ccc(-c2ccc(=O)n(CC(=O)NCc3ccccc3Cl)n2)cc1 [IIIb-1, N-(2-chlorobenzyl)-2-(3-(4-methoxyphenyl)-6-oxopyridazin-1(6H)-yl)acetamide]
37 | < 10 µM | COc1ccc(-c2ccc(=O)n(CC(=O)Nc3cccc4[nH]ccc34)n2)c(F)c1 [IIIb-2, 2-(3-(2-fluoro-4-methoxyphenyl)-6-oxopyridazin-1(6H)-yl)-N-(1H-indol-4-yl)acetamide]
38 | < 10 µM | COc1ccc(-c2ccc(=O)n(CC(=O)Nc3cccc4[nH]ccc34)n2)cc1 [IIIb-3, N-(1H-indol-4-yl)-2-(3-(4-methoxyphenyl)-6-oxopyridazin-1(6H)-yl)acetamide]
39 | < 10 µM | COc1ccc(-c2ccc(=O)n(CC(=O)Nc3cccc4c3ccn4C)n2)cc1 [IIIb-4, 2-(3-(4-methoxyphenyl)-6-oxopyridazin-1(6H)-yl)-N-(1-methyl-1H-indol-4-yl)acetamide]
40 | < 10 µM | CC(C)c1cccc(NC(=O)Cn2nc(-c3ccc4c(c3)OCCCO4)ccc2=O)c1 [IIIb-5, 2-(3-(3,4-dihydro-2H-benzo[b][1,4]dioxepin-7-yl)-6-oxopyridazin-1(6H)-yl)-N-(3-isopropylphenyl)acetamide]
41 | < 10 µM | O=C(Cn1nc(-c2ccc3c(c2)OCCO3)ccc1=O)Nc1ccccc1F [IIIb-6, 2-(3-(2,3-dihydrobenzo[b][1,4]dioxin-6-yl)-6-oxopyridazin-1(6H)-yl)-N-(2-fluorophenyl)acetamide]
42 | < 10 µM | COc1ccc(-c2ccc(=O)n(CC(=O)NCCC3=CCCCC3)n2)c(F)c1 [IIIb-7, N-(2-(cyclohex-1-en-1-yl)ethyl)-2-(3-(2-fluoro-4-methoxyphenyl)-6-oxopyridazin-1(6H)-yl)acetamide]
43 | < 10 µM | COc1ccc(-c2ccc(=O)n(CC(=O)NC3Cc4ccccc4C3)n2)cc1 [IIIb-8, N-(2,3-dihydro-1H-inden-2-yl)-2-(3-(4-methoxyphenyl)-6-oxopyridazin-1(6H)-yl)acetamide]
